In ChEMBL document CHEMBL4382228, “Small molecules as inhibitors of PCSK9: Current status and future challenges” (Eur J Med Chem, 2019):

Columns and labels:
Mus musculus = assay: Decrease in cholesterol level in C57BL/6 mouse fed with high fat diet at 10 mg/kg, po administered daily for 5 days relative to control; type: functional; set-up: scale not given: the % may be the effect or the level left
[1] = target: T1, Proprotein convertase subtilisin/kexin type 9 (Homo sapiens, UniProt Q8NBP7); assay: Binding affinity to PCSK9 (unknown origin) by SPR assay
HepG2 [2] = assay: Inhibition of PCSK9 mRNA expression in human HepG2 cells after 24 hrs by SYBR Green I dye-based qRT-PCR analysis; type: functional, cell-based; settings: HepG2, 24 h
HepG2 [3] = assay: Inhibition of PCSK9 mRNA expression in human HepG2 cells after 24 hrs by qRT-PCR analysis; type: functional, cell-based; settings: HepG2, 24 h
[4] = target: T1, Proprotein convertase subtilisin/kexin type 9; assay: Inhibition of human recombinant full length ProLabel-tagged PCSK9 expressed in CHO-K1 cells incubated overnight and measured after 3 days by chemiluminescence assay; type: cell-based
[5] = target: T1, Proprotein convertase subtilisin/kexin type 9; assay: Inhibition of human recombinant PCSK9 expressed in CHO-K1 cells assessed as alkaline phosphatase secretion incubated overnight and measured after 3 days by HTS assay; type: cell-based
CHO-K1 = assay: Cytotoxicity against CHOK1 cells expressing human recombinant full length ProLabel-tagged PCSK9 after overnight incubation by CellTiter blue assay; type: cell-based; settings: Cricetulus griseus
[6] = target: T1, Proprotein convertase subtilisin/kexin type 9; assay: Inhibition of human recombinant full length ProLabel-tagged PCSK9 expressed in CHO-K1 cells incubated overnight and measured after 3 days by HTS assay; type: cell-based
[7] = target: T1, Proprotein convertase subtilisin/kexin type 9; assay: Inhibition of wild type His-tagged PCSK9 (unknown origin) binding to recombinant LDLR-AB domain (unknown origin) after 2 hrs by fluorescence assay
[8] = target: T1, Proprotein convertase subtilisin/kexin type 9; assay: Inhibition of PCSK9 in human HepG2 cells assessed as increase in LDL uptake after 24 hrs by fluorescence assay; type: cell-based
Hepatocyte [9] = assay: Inhibition of PCSK9 mRNA expression in mouse primary hepatocytes at 2.5 uM after 24 hrs relative to control; type: functional
Hepatocyte [10] = assay: Inhibition of PCSK9 mRNA expression in mouse primary hepatocytes at 2 uM after 24 hrs relative to control; type: functional
HepG2 [11] = assay: Inhibition of PCSK9 mRNA expression in human HepG2 cells by SYBR Green I dye-based qRT-PCR analysis; type: functional, cell-based
HepG2 [12] = assay: Inhibition of PCSK9 mRNA expression in human HepG2 cells at 20 uM after 24 hrs by qRT-PCR analysis relative to control; type: functional; settings: HepG2, 24 h
80S Ribosome = assay: Binding affinity to 80S ribosome in human HuH7 cells expressing human C-terminal V5/6-His-tagged PCSK9 assessed as inhibition of PCSK9 secretion after 16 to 24 hrs by AlphaLISA method; type: cell-based; settings: huh-7
Huh-7 [13] = assay: Inhibition of PCSK9 mRNA expression in human HuH7 cells at 2 uM after 24 hrs by qRT-PCR assay relative to control; type: functional; settings: Huh-7, 24 h
Huh-7 [14] = assay: Increase in LDLR mRNA expression in human HuH7 cells at 2 uM after 24 hrs by qRT-PCR assay relative to control; type: functional
Huh-7 [15] = assay: Increase in LDLR protein expression in human HuH7 cells at 2 uM after 24 hrs by immunoblotting assay relative to control; type: functional

T1 sequence (Q8NBP7 31-152 limits assumed): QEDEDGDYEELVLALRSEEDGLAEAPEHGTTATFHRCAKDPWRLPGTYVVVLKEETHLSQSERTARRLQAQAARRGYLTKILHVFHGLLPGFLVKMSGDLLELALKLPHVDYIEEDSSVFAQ
T1 sequence (Q8NBP7 153-692 limits assumed): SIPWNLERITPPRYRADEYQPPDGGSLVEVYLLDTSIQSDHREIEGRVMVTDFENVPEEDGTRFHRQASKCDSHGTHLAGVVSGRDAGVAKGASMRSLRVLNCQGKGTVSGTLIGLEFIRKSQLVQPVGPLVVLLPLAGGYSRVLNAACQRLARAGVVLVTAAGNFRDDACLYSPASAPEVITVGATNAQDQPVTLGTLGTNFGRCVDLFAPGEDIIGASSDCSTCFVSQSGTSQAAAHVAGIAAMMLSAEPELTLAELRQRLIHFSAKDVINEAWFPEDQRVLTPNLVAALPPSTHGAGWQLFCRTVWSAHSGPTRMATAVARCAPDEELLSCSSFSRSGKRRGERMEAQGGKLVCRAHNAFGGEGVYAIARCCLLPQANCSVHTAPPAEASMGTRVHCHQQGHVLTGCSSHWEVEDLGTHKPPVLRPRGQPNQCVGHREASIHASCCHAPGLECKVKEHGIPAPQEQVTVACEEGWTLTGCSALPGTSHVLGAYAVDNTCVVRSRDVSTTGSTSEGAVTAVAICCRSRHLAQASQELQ

Compound: CCN(CC)C(=O)c1ccc(NC(=O)CSc2nnc(-c3cccs3)n2C2CC2)cc1
- Activity (Mus musculus): 20 - 38%

Compound: CC(C)C[C@@H](C(=O)N[C@H](CCCCN)C(=O)N[C@H]1CCOC1=O)N1CCN(C(=O)[C@H](CS)N2C(=O)N[C@H](CC(N)=O)C2=O)CC1
- Kd [1]: 41.2 µM

Compound: C/C=C(/C)C(=O)Oc1c2c(cc3c1-c1c(cc(OC)c(OC)c1OC)C[C@](C)(O)[C@@H](C)C3)OCO2
- IC50 (HepG2 [2]): 0.36 µM

Compound: Cc1ccc(N2CCN(C(=O)c3ccc(NC(N)=O)cc3)C(c3ccccc3)C2)cc1Cl (configuration not stated)
- Activity (Mus musculus): 20 - 38%

Compound: CN1C(=O)c2cc(NC(=O)c3ccc(C(F)(F)F)cc3)ccc2OC[C@@H]2O[C@H](CC(=O)NC3Cc4ccccc4C3)CC[C@@H]21
- EC50 (HepG2 [3]): 0.36 µM

Compound: COc1ccc(CCC(=O)N(c2nccc3ccccc23)[C@@H]2CCCNC2)cc1
- IC50 [4]: < 10 µM
- IC50 [5]: > 10 µM
- IC50 (CHO-K1): > 10 µM
- IC50 [6]: 4.8 µM

Compound: Cn1cccc1-c1ccc(-c2ccc(-c3ccc(-c4ccccc4)n3C)n2C)n1C
- IC50 [7]: 11.2 µM
- EC50 [8]: 6.04 µM

Compound: COc1cc2c(cc1-c1c(C)noc1C)ncc1[nH]c(=O)n([C@H](C)c3ccccn3)c12
- inhibition at 2.5 µM (Hepatocyte [9]): > 90%

Compound: Cc1sc2c(c1C)C(c1ccccc1)=N[C@@H](CC(=O)OC(C)(C)C)c1nnc(C)n1-2
- inhibition at 2 µM (Hepatocyte [10]): > 90%

Compound: COc1cc([C@@H]2O[C@H](c3cc(O)c(OC)c(OC)c3)[C@@H](C)[C@@H]2C)ccc1O
- IC50 (HepG2 [2]): 3.15 µM

Compound: CC(C)[C@@H](C)/C=C/[C@@H](C)[C@H]1CCC2=C3[C@@H](O)[C@@H]4O[C@@]45C[C@@H](O)CC[C@]5(C)[C@H]3CC[C@@]21C
- IC50 (HepG2 [11]): 8.23 µM

Compound: COc1cc2c(c(O)c1O)COC2=O
- IC50 (HepG2 [11]): 7.18 µM

Compound: COc1cccc(O)c1-c1cc(=O)c2c(O)c(OC)c(OC)c(OC)c2o1 [SKULLCAPFLAVONE II]
- inhibition at 20 µM (HepG2 [12]): 42.4%

Compound: COc1c2c(cc3c1-c1c(cc4c(c1OC)OCO4)C[C@H](C)[C@H](C)C3)OCO2 [SCHISANDRIN C]
- IC50 (HepG2 [2]): 3.85 µM

Compound: COc1cc(O)cc2c1C(=O)[C@H](O)[C@@H](c1ccccc1O)O2
- inhibition at 20 µM (HepG2 [12]): 84.4%

Compound: O=C(c1ccc(-n2nnc3cccnc32)cc1)N(c1ncccc1Cl)[C@@H]1CCCNC1
- IC50 (80S Ribosome): 0.3 µM

Compound: COc1cc2c(c(OC)c1OC)-c1c(cc3c(c1OC)OCO3)C[C@@H](C)[C@@](C)(O)C2
- IC50 (HepG2 [2]): 1.1 µM

Compound: CC(C)C[C@H](C(=O)N1CCN([C@@H](CC#N)C(=O)N[C@@H](CCCNC(=N)N)C(=O)N[C@H]2CCOC2=O)CC1)N1C(=O)N[C@@H](CC(=O)O)C1=O
- Kd [1]: 35.8 µM

Compound: COC(=O)c1c(C)cc(O[C@@H]2O[C@H](CO)[C@@H](O)[C@H]2O)c(OC)c1O
- IC50 (HepG2 [11]): 20.1 µM

Compound: Cc1cc(C(=O)C2=C(O)C(=O)N(CCCN3CCOCC3)C2c2ccncc2)ccc1OCc1ccccc1 (configuration not stated)
- Activity (Mus musculus): 20 - 38%

Compound: CC(=O)Nc1ccc(C(=O)N2CCN(c3ccc(C)c(Cl)c3)CC2c2ccccc2)cc1 (configuration not stated)
- Activity (Mus musculus): 20 - 38%

Compound: O=c1c(O[C@@H]2O[C@H](CO)[C@@H](O)[C@H](O)[C@H]2O)c(-c2ccc(O)c(O)c2)oc2cc(O)cc(O)c12 [ISOQUERCETIN]
- inhibition at 2 µM (Huh-7 [13]): 20 to 30%
- Activity (Huh-7 [14]): 60%
- Activity (Huh-7 [15]): 300 - 400%

Compound: CC(C)C[C@H](C(=O)N1CCN([C@@H](CC(N)=O)C(=O)N[C@@H](CCCNC(=N)N)C(=O)N[C@H]2CCOC2=O)CC1)N1C(=O)N[C@@H](CC(=O)O)C1=O
- Kd [1]: 24.8 µM

Compound: CC(C)=CCc1c(O)cc(-c2cc3ccc(O)cc3o2)cc1O [MORACIN C]
- IC50 (HepG2 [2]): 16.8 µM

Compound: Nc1ncnc2c1ncn2[C@@H]1O[C@H](CO)[C@@H](O)[C@H]1O [ADENOSINE]
- IC50 (HepG2 [11]): 18.5 µM

Compound: O=C(Nc1ccc(-c2nc3ccccc3o2)cc1)c1ccc(NC(=O)c2cc3ccccc3o2)cc1
- Activity (Mus musculus): 20 - 38%
